The numbers were not newly measured in patent publication US4127525A, “Novel tridecapeptides, intermediates therefor, and compositions and methods employing said tridecapeptides” (priority 1977, dated 1978), which cites them from elsewhere.

Series [1] relates to partially purified brain opiate receptor sites. As to conditions: natural peptide.
In a further series the test system is rat. As to conditions: injected directly into the brain of the rat.

For “H-Tyr-Gly-Gly-Phe-Met-OH [methionine enkephalin]”, in series [1], the “binding to partially purified brain opiate receptor sites” value is “binds stereo-specifically”. Further, the analgesic activity result in the series on rat is “only weak analgesic agent of short duration”.
